This is an account of results in US9540412B2, “Methods of preparing targeted aptamer prodrugs” (Albert Einstein College of Medicine, Inc., priority 2010, dated 2017).

A word on the IC50: it is the concentration that gives 50% inhibition.

Read-outs that look alike come from different tables or passages of the source.

One data set relates to HeLa cells. Briefly: HeLa cell viability (alamarBlue) after aptamer-prodrug treatment. The following applies: 50 nM aptamer, 4 days, serum free media (DMEM containing 1% Nutridoma), FIG. 3. It is filed as cell-based, human. An excerpt: To test the feasibility of this strategy for delivery of nucleoside analog drugs, two different anti-hTfR aptamers (designated min8 and min9.1) were extended with a 24 nucleotide extension. A complementary DNA oligonucleotide (FdC-oligo) was then synthesized to this region in which all cytosine residues had been replaced with the nucleoside analog 5F-deoxycytidine (FdC), a potent inhibitor of methyltransferase activity (Beumer et al. 2008). The aptamer-produgs were then assembled by mixing the drug oligo at a 1:1 molar ratio with one of two different minized anti-hTfR aptamers, min8, min9.1, or a non-targeting control aptamer (cntrl) in PBS and thermally equilibrated by heating at 70° C. Aptamer function following hybridization was confirmed by FACS using a FITC labeled version of the oligonucleotide.
The ability of the assembled anti-hTfR aptamer-prodrugs to deliver therapeutic cargo to cells was tested on HeLa cells. To avoid potential complications from degradation of the FdC-oligo (which is DNA and thus readily susceptible to degradation), these assays were performed in serum free media (DMEM containing 1% Nutridoma). Cells were incubated with increasing concentrations of either free drug, anti-hTfR aptamer-prodrugs or controls for 4 days, after which cell viability was assayed using the chromogenic substrate alamarBlue. […]

In data set [1] the target is T1, human protein tyrosine kinase-7 (Homo sapiens, UniProt Q13308).
T1 construct: This protein is overexpressed on a variety of leukemia cell lines; endogenous in cells; host or cells: 'target cells'
T1 sequence (Q13308 31-1070): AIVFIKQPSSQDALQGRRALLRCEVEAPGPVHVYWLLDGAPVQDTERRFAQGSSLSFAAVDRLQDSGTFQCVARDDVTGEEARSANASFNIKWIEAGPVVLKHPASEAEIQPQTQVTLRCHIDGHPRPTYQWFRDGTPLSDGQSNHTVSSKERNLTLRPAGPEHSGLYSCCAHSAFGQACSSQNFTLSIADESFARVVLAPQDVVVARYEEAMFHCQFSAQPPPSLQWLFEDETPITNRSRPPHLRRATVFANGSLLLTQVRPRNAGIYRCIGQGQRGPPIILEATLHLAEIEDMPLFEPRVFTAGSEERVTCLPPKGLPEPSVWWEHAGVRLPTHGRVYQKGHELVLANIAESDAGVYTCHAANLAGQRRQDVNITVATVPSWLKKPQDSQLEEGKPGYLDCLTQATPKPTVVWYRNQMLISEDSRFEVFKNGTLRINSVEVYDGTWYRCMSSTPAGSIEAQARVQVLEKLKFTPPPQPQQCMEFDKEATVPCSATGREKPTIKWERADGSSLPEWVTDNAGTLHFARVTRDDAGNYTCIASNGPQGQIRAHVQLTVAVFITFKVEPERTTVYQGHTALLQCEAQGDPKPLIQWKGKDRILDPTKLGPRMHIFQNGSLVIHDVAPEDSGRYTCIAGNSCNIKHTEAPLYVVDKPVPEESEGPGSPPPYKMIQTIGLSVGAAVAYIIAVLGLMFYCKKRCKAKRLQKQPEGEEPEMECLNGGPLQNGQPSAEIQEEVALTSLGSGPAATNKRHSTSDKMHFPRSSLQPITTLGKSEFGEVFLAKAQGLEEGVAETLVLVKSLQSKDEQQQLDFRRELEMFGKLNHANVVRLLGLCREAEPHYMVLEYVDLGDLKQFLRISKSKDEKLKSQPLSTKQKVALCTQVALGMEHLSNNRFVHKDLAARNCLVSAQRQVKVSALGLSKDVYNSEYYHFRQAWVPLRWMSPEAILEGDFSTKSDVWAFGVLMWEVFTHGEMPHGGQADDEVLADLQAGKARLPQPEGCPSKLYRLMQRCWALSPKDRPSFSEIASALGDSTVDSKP
Briefly: Binding of fluorescently labeled scgc8 aptamer prodrugs to target cells (FIG. 4A). The following applies: fluorescently labeled aptamers. The text has this:
(§1) In addition to adding drugs to aptamers by hybridization, a series of aptamer-prodrugs has been synthesized using a DNA aptamer (scgc8) which targets human protein tyrosine kinase-7. […] To stabilize these aptamers against serum nucleases, the oligonucleotides were generated bearing a 3′ inverted thymidine residue which dramatically stabilizes the serum half-life of DNA molecules to ˜20 hrs (Dass et al. 2002).
A ssDNA aptamer that targets protein kinase 7 was selected by Shanggun et al (J Proteome Res, 2008 7:2133). The aptamer, scgc.8, was adapted for the delivery of floxuridine (5FdU) by site specific incorporation this nucleoside analog drug during chemical synthesis. Aptamer prodrugs were synthesized bearing a 5′ fluorescein molecule and a 3′ inverted thymiding residue to enhance serum stability. The sequence of the parental aptamer and the aptamer prodrugs are: Scgc.8 […] (SEQ ID NO:8); Scgc.8-5 AU*CU*AACU*[…]*U*AGA (SEQ ID NO:9); Scgc.8-9 AU*CU*AACU*GCU*GCGCCGCCGGGAAAAU*ACU*GU*ACGGU*U*AGA (SEQ ID NO:10). U* denotes 5FdU.

The subject of the next data set is Jurkat cells. The data set can be described thus: Jurkat cell growth inhibition / toxicity (FIG. 4B). It is filed as cell-based, human. The settings on record: 500 nM, regular media (RPMI+10% FBS), 3' inverted thymidine.
Excerpt: as §1

In the next data set the test system is LNCaP cells. The settings on record: unconjugated toxin; read-out: IC50 (toxicity); cited from earlier work.
Data set [2] deals with Min6B1 cells. The data set can be described thus: Flow cytometry cell labeling of Min6B1 cells. It counts as cell-based, mouse. The following applies: streptavidin phycoerytherin. For orientation: In flow cytometry, cells or beads pass a laser one at a time.
Data set [3] has as its system mouse (fibroblasts, brain endothelial, skeletal and myocardial muscles) and human (cervical and prostate cancer) cell lines. Briefly: Specificity studies on additional mouse and human cell lines. It counts as cell-based.
Data set [4] deals with Min6B1 cells. The data set can be described thus: Internalization into Min6B1 cells (fluorescence microscopy). It is filed as cell-based, mouse. Here is the method: Aptamers that target and are internalized by beta cells were identified by performing an internalization selection against the glucose-responsive immortalized mouse beta cell line Min6B1. As in the selection against the transferrin receptor described above, in order to drive the selection towards molecules that are internalized, following incubation with the RNA library, target cells were washed extensively and treated with trypsin and ribonuclease to remove any surface bound RNA. Following recovery of total RNA, aptamers were amplified, transcribed and the process was repeated.
When similar experiments were conducted with the unselected library, little or no fluorescent signal was observed.

On to `Nc1nc(=O)n([C@H]2C[C@H](O)[C@@H](CO)O2)cc1F` [free drug, 5F-deoxycytidine], for which the cell viability result in the data set with HeLa cells is “loss of cell viability”.

For “scgc8-9: scgc8 with all 9 thymidine residues replaced with floxuridine, SEQ ID NO:10 (AUCUAACUGCTGCGCCGCCGGGAAAATACTGTACGGUUAGA; all 9 thymidines replaced with floxuridine, chemistry not fully specified)”, the “binding to target cells” value in data set [1] is recorded as “still bound target cells better than a scrambled control sequence (cntrl-9) but less efficiently than the non-drug containing aptamer (scgc8)”. The “inhibition of cell growth / toxicity” value in the data set with Jurkat cells is “inhibited cell growth as efficiently as free drug alone”.

With “scgc8-5: scgc8 with 5 of 9 thymidine residues replaced with floxuridine, SEQ ID NO:9 (AUCUAACUGCTGCGCCGCCGGGAAAATACTGTACGGUUAGA; floxuridine substitutions, chemistry not fully specified)”, the “binding to target cells” value in data set [1] was “still bound target cells better than a scrambled control sequence (cntrl-9) but less efficiently than the non-drug containing aptamer (scgc8)”. For the same molecule, the “inhibition of cell growth / toxicity” value in the data set with Jurkat cells is recorded as “considerable lower levels of toxicity”.

gelonin: the half-inhibitory concentration (IC50) in the data set on LNCaP cells is around 5 µM.

As for “C1.min: minimized core of C1, SEQ ID NO:12 (UGCGAAUCCUCUAUCCGUUCUAAACGCUUUAUGAUUUCGCA; listed as RNA, chemistry not given here)”, in the data set with Min6B1 cells [2], the cell labeling entry is given as “labeled cells as efficiently as the full length clone”.

B1: C1: 2′F modified internalizing RNA selected against Min6B1 cells, SEQ ID NO:11 (nucleic acid)
chain: GGGAGGUGAAUGGUUCUACGAUAUUGCGAAUCCUCUAUCCGUUCUAAACGCUUUAUGAUUUCGCAUAGUCCUUACAUGCGAGAUGACCACCGUAAUUGAAUUAAAUGCCCGCCAUGACCAG
modifications: 2'-fluoro modified RNA library, positions of 2'-F not given here
Turning to B1, the cell labeling result in the data set on Min6B1 cells [2] is “significant cell labeling”. Moreover, the results for the “cell specificity of targeting / internalization” value in data set [3] and in data set [3] (listed as dominant clone) were “targets several unrelated cell lines across different species” and “not specific for beta cells”, respectively. Further, the internalization result in the data set on Min6B1 cells [4] was “not only binds to, but is also internalized by this cell type”; in the data set with Min6B1 cells [4] (listed as dominant clone), “readily internalized by Min6B1 cells”.
